Assay results from patent US20130005696A1, “BUFADIENOLIDE DERIVATIVES, PREPARING PROCESS THEREOF, COMPOSITION COMPRISING THE SAME AND THE USE THEREOF” (priority 2011, published 2013).

How the values were obtained:
[1] = tested on: human-derived leukaemia MV-4-11 xenograft; assay: Therapeutic effect against MV-4-11 xenograft in nude mice; type: in vivo, Balb/c nude mice; conditions: for Inhibition Rate (%): 4 mg/kg
Protocol: (§1) This experiment is to investigate the in vivo inhibitory effect of II1E-01.HCl on growth of human-derived hepatic carcinoma HepG2 cell, human-derived breast carcinoma MDA-MB-231 cell, human-derived lung carcinoma H460 cell, human-derived colon carcinoma HCT-116 cell, human-derived […] MV-4-11 cell xenografts in nude mice.
(§2) Formulation of solvent control (5% anhydrous ethanol & 5% aqueous glucose solution): 2.5 mL anhydrous ethanol was added into a 50 mL tube, followed by addition of 47.5 mL 5% glucose solution for injection followed by shaking, and stored at room temperature before use.
(§3) Formulation of the preparations of the compounds to be tested: formulations with concentrations of 0.4 mg/mL and 0.6 mg/mL were prepared respectively. An appropriate amount of II1E-01.HCl was weighted and put into a 50 mL tube, followed by addition of corresponding volume of solvent to get the desired concentration and mixed using a vortex mixer. After the solid was dissolved completely, the solution was subpackaged into 4 mL vials and stored at refrigerated condition (2-8° C.) until use.
(§4) Experimental animals: Balb/c nude mice (male, six weeks old).
MV-4-11 cells were in vitro cultured to be proliferated. The cells in the log phase of growth were collected and resuspended in IMDM serum-free medium, and then implanted subcutaneously into the axilla of the right forelimb of nude mice. After 37 days, the tumor size reached about 270 mm^3. The mice bearing the tumor were grouped by randomized block method according to the tumor size into 3 groups, which contain 6 mice in each group and include the group of solvent control, group of positive control (Sunitinib 40 mg/kg), and group of the testing compound II1E-01.HCl (4 mg/kg QOD). In the positive control group, sunitinib was administered intragastrically once daily (QD). In the group of II1E-01.HCl, II1E-01.HCl was administered intravenously at tail once every other day (QOD). The animals were given the drugs for 21 days, during which the growth of tumor and the body weight of the mice were observed.
After continuously administering for 21 days (the 58th day after the implantation), the tumor weight and inhibition rate were calculated, and results are listed in Table 9. […] In the group of the testing compound II1E-01.HCl (4 mg/kg QOD), the tumor also completely disappeared at 14th day after administration, and the inhibition rate was 100.00% (P<0.01) at the end of the experiment.

[2] = tested on: human hepatic carcinoma HepG2 xenograft; assay: Therapeutic effect against HepG2 xenograft in nude mice; type: in vivo, Balb/c nude mice; conditions: QOD × 14 d
Protocol: as §1, §2, §3, §4
HepG2 cells were in vitro cultured to be proliferated. The cells in the log phase of growth were collected and resuspended in DMEM serum-free medium, and then implanted subcutaneously into the axilla of the right forelimb of nude mice. After 11 days, the tumor size reached about 250 mm^3. The mice bearing the tumor were grouped according to the tumor size into 6 groups, including the group of solvent control, groups of positive controls (Rapamycin 10 mg/kg and Vinorelbine 8 mg/kg), and groups of low (2 mg/kg), middle (4 mg/kg) and high (6 mg/kg) dosages of the testing compound II1E-01.HCl. Each group was administered intravenously at tail. In the solvent control group, the solvent control solution was administered intravenously once every other day (QOD). In the low, middle and high dosage groups of II1E-01.HCl, II1E-01.HCl was administered intravenously once every other day (QOD). In the positive control groups, Rapamycin 10 mg/kg and Vinorelbine 8 mg/kg were administered once a week (QW). The animals were given the drugs for two weeks. In the two week time period, the growth of tumor and the body weight of the mice were observed.
Two weeks after administering (the 25th day after the implantation), the tumor weight and inhibition rate were calculated, and results are listed in Table 5.

[3] = tested on: LoVo human colon carcinoma cell line; assay: In vitro antitumor activity assay (SRB), LoVo; type: cell-based; conditions: Table 2, read-out: IC50, inhibition of cell proliferation, LoVo
From the text: HeLa human cervical carcinoma cell line, A-549 human non-small cell lung carcinoma cell line, NCI-H2228 human lung carcinoma cell line, NCI-H460 human lung carcinoma cell line, MDA-MB-231 human breast carcinoma cell line, MCF-7 human breast carcinoma cell line, Bel-7402 human hepatic carcinoma cell line, Hep3B human hepatic carcinoma cell line, QGY-7703 human hepatic carcinoma cell line, MV-4-11 human leukemic cell line, DAUDI human leukemic cell line, Jurkat human leukemic cell line, A498 renal carcinoma cell line, LoVo human colon carcinoma cell line, HCT1116 human colon carcinoma cell line, A431 human skin carcinoma cell line, PANC-1 human pancreatic carcinoma cell line, U87-MG human brain carcinoma cell line, SH-SY5Y human brain carcinoma cell line, RPMI-8226 human bone carcinoma cell line, HT1080 human fibrosarcoma cell line, PC-3 human prostatic carcinoma cell line, AGS human gastric adenocarcinoma cell line, and BGC-823 human gastric adenocarcinoma cell line were purchased from the Cell Bank of the Chinese Academy of Sciences.
The positive control is bufalin (formulated according to the common method), its purity is 98% or more by HPLC-UV and its structure is identified by NMR. The compounds to be tested and the positive control were diluted with normal saline with a concentration gradient of 10^−4 M, 10^−5 M, 10^−6 M, 10^−7 M and 10^−8 M.
According to cell growth rate, tumor cells in the log phase of growth were seeded into 96-well culture plates at 100 μL per well, and allowed to attach for 24 hours, followed by addition of a test compound or positive control at 10 μL per well. For each concentration, the test was carried out in triplicate wells. Solvent control wells with addition of normal saline into cell culture and a blank well containing only cell culture medium but without cells for zeroing were also included. The tumor cells were incubated for 72 hours at 37° C. under 5% CO2, and then the culture medium (RPMI-1640) was removed. The cells were fixed with 10% cool TCA by incubating for 1 h at 4° C., washed with distilled water for 5 times, and dried naturally in the air. A solution of SRB (Sigma) (4 mg/mL) in 1% glacial acetic acid was added at 100 μL per well, and the cells were stained for 15 minutes at room temperature, and the supernatant was discarded. The plates were washed for 5 times with 1% acetic acid, and dried in air. Finally, Tris solution was added at 150 μL per well, and the absorbance (A) was measured at a wavelength of 515 nm using a microplate reader. The growth inhibition on tumor cell proliferation was calculated according to the following equation:
Growth Inhibition (%)=[(Absorbance of negative control−Absorbance of blank)−(Absorbance of sample−Absorbance of blank)]/(Absorbance of negative control−Absorbance of blank)×100%
Drug concentration: 10 μM, 1 μM, 0.1 μM, 10 nM, 1 nM, 0.1 nM.
IC50 was fitted by GraphPad Prism 4.

SMILES	day after administration at which the tumor completely disappeared ([1]; 4 mg/kg iv QOD) [days]	Tumor Weight(g) Mean ± SE ([1]; 4 mg/kg iv, QOD × 21 d) [g]	Inhibition Rate (%) ([1]; 4 mg/kg iv, QOD × 21 d)	Inhibition Rate (%) ([1]; 4 mg/kg iv, QOD × 21 d, listed as II1E-01.HCl)	Tumor Weight(g) Mean ± SE ([2]; 2 mg/kg iv) [g]	Inhibition Rate (%) ([2]; 2 mg/kg iv, 2 mg/kg)	Inhibition Rate (%) ([2]; 2 mg/kg iv, listed as II1E-01.HCl, 2 mg/kg)	Tumor Weight(g) Mean ± SE ([2]; 4 mg/kg iv) [g]	Inhibition Rate (%) ([2]; 4 mg/kg iv, 4 mg/kg)	Inhibition Rate (%) ([2]; 4 mg/kg iv, listed as II1E-01.HCl, 4 mg/kg)	Tumor Weight(g) Mean ± SE ([2]; 6 mg/kg iv) [g]	Inhibition Rate (%) ([2]; 6 mg/kg iv, 6 mg/kg)	Inhibition Rate (%) ([2]; 6 mg/kg iv, listed as II1E-01.HCl, 6 mg/kg)	IC50 [3] [nM]
C[C@]12CC[C@H](OC(=O)NC3CCNCC3)C[C@H]1CC[C@@H]1[C@@H]2CC[C@]2(C)[C@@H](c3ccc(=O)oc3)CC[C@]12O.Cl [II1E-01•HCl]	14	0.0000 ± 0.0000	100.00	100.00	0.3177 ± 0.0410	58.50	58.50	0.0938 ± 0.0121	87.75	87.75	0.0262 ± 0.0054	96.58	96.58	
C[C@]12CC[C@H](O)C[C@H]1CC[C@@H]1[C@@H]2CC[C@]2(C)[C@@H](c3ccc(=O)oc3)CC[C@]12O [bufalin, reference compound]														29.5 ± 1
